A short description of series [1]: Solubility in methyl ethyl ketone (MEK) at 25° C. The series is classed as physicochemical. The conditions noted are these: solvent MEK.
Series [2] in a line: Solubility in toluene at 25° C. The format is physicochemical. As to conditions: solvent toluene.

Regarding `OCCOc1ccc2ccccc2c1-c1c(OCCO)ccc2ccccc12` [BNE, 2,2′-bis(2-hydroxyethoxy)-1,1′-binaphthalene], the “solubility in methyl ethyl ketone (MEK) at 25° C.” value (from here on “solubility in methyl ethyl ketone”) in series [1] was 0.75 g/(10 mL). The “solubility in toluene at 25° C.” value in series [2] is 0.1 g/(10 mL).

For the compound `OCCOc1ccc(C2(c3ccc(OCCO)c(-c4ccccc4)c3)c3ccccc3-c3ccccc32)cc1-c1ccccc1` [BPPEF, 9,9-bis[4-(2-hydroxyethoxy)-3-phenylphenyl]fluorene], the “solubility in methyl ethyl ketone” value in series [1] was 4.5 g/(10 mL). Besides, in series [2], the “solubility in toluene at 25° C.” value is 0.05 g/(10 mL).

Take `OCCOc1ccc2cc(-c3ccccc3)ccc2c1-c1c(OCCO)ccc2cc(-c3ccccc3)ccc12` [DP, 2,2′-bis(2-hydroxyethoxy)-6,6′-diphenyl-1,1′-binaphthalene]: the “solubility in methyl ethyl ketone” value in series [1] is 0.3 g/(10 mL). The “solubility in toluene at 25° C.” value in series [2] is 0.3 g/(10 mL).

The values above are taken from US20240376286A1, “DIHYDROXY COMPOUND MANUFACTURING METHOD AND RECYCLED RESIN MANUFACTURING METHOD” (MITSUBISHI GAS CHEMICAL COMPANY, INC., priority 2021, published 2024).
